According to patent publication US20210292330A1, “PYRROLIDINE-FUSED HETEROCYCLES” (Erasca, Inc., priority 2020, published 2021):

Target: T1, KRAS 4B G12C protein (Homo sapiens, UniProt P01116, G12C)
T1 construct: This protein contained 188 amino acids in total, including an N-terminal 6-Histidine tag; made in house; host or cells: E. coli BL21
Assay: In vitro covalent adduct formation (CAF) assay by LC-MS
Type: binding
Conditions: compound 10 μM, protein 5 μM, 22° C., percentage of protein bound by the compound
Outline: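 Recombinant His-TEV-tagged KRAS 4B G12C (residues 1-169, E. coli) at 5 μM in Tris-buffered saline pH 7.4 was incubated with 10 μM compound (4% DMSO) at 22° C. for one hour, sampling over time. Intact-mass LC-MS free:adduct ratios gave % protein bound; duplicates.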

SMILES	CAF (10 minutes/60 minutes) at 10 micromolar: 10 minutes	CAF (10 minutes/60 minutes) at 10 micromolar: 60 minutes
C=CC(=O)N1CCN(c2nc(OC[C@@H]3CCCN3C)nc3c2CN(C2CCc4ccccc42)C3)C2CS(=O)(=O)CC21 (stereo partly drawn) [1-210]	0%/ 0%	0%/ 0%
C=CC(=O)N1CCN(c2nc(OC[C@@H]3CCCN3C)nc3c2CN(C2CCc4ccccc42)C3)C[C@@H]1CCC#N (stereo partly drawn) [1-212]	0%	5%
C=CC(=O)N1CCN(c2nc(OC[C@@H]3CCCN3C)nc3c2CN(C2CCc4ccccc42)C3)C[C@@H]1Cn1ccnn1 (stereo partly drawn) [1-214]	0%	2%
C=CC(=O)N1CCN(c2nc(OC[C@@H]3CCCN3C)nc3c2CN(C2CCc4ccccc42)C3)C[C@@H]1Cn1nccn1 (stereo partly drawn) [1-215]	0%	7%
C=CC(=O)N1CC2(C1)CN(c1nc(OC[C@@H]3CCCN3C)nc3c1CN(C1CCc4ccccc41)C3)CCO2 (stereo partly drawn) [1-216]	18%	54%
C=CC(=O)N1CCN(c2nc(OC[C@@H]3CCCN3C)nc3c2CN(C2CCc4ccccc42)C3)C[C@@H]1CNC(C)=O (stereo partly drawn) [1-217]	0%/ 0%	0%/ 0%
C=CC(=O)N1CCN(c2nc(OC[C@@H]3CCCN3C)nc3c2CN(C2CCc4ccccc42)C3)C[C@@H]1Cn1ccnc1 (stereo partly drawn) [1-219]	0%	1%
C=CC(=O)N1CCN(c2nc(OC[C@@H]3CCCN3C)nc3c2CN(C2CCc4ccccc42)C3)C[C@@H]1Cn1cccn1 (stereo partly drawn) [1-220]	0%	2%
C=CC(=O)N1CCN(c2nc(OC[C@@H]3CCCN3C)nc3c2CN(C2CCc4ccccc42)C3)C[C@@H]1Cc1ncc[nH]1 (stereo partly drawn) [1-224, 1-((2S)-2-((1H-imidazol-2-yl)methyl)-4-(6-(2,3-dihydro-1H-inden-1-yl)-2-(((S)-1-methylpyrrolidin-2-yl)methoxy)-6,7-dihydro-5H-pyrrolo[3,4-d]pyrimidin-4-yl)piperazin-1-yl)prop-2-en-1-one]	0%/ 0%	0%/ 0%
C=CC(=O)N1CCN(c2nc(O[C@@H]3CN(C)C[C@H]3OC)nc3c2CN(C2CCc4ccccc42)C3)C2COCC21 (stereo partly drawn) [1-227]	0%/ 0%	0%/ 0%
C=CC(=O)N1CCN(c2nc(O[C@@H]3CN(C)C[C@H]3OC)nc3c2CN(C2CCc4ccccc42)C3)C2CS(=O)(=O)CC21 (stereo partly drawn) [1-228]	0%/ 0%	0%/ 0%
C=CC(=O)N1CCN(c2nc(OC[C@@H]3CCCN3C)nc3c2CN(C2CCc4ccccc42)C3)C[C@@H]1CCC(N)=O (stereo partly drawn) [1-231]	0%	1%
C=CC(=O)N1C2CC(=O)CC1CN(c1nc(O[C@@H]3CN(C)C[C@H]3OC)nc3c1CN(C1CCc4ccccc41)C3)C2 (stereo partly drawn) [1-232]	0%/ 0%	0%/ 0%
C=CC(=O)N1C2CC(=O)CC1CN(c1nc(OC[C@@H]3CCCN3C)nc3c1CN(C1CCc4ccccc41)C3)C2 (stereo partly drawn) [1-233]	0%	5%
C=CC(=O)N1CCN(c2nc(OC[C@@H]3CCCN3C)nc3c2CN(S(=O)(=O)c2ccccc2C)C3)C[C@@H]1CC#N [1-237]	27%	80%
C=CC(=O)N1CCN(c2nc(OC[C@@H]3CCCN3C)nc3c2CN(S(=O)(=O)c2cccc4ccccc24)C3)C[C@@H]1CC#N [1-238]	73%	95%
C=CC(=O)N1CC2CC1CN2c1nc(OC[C@@H]2CCCN2C)nc2c1CN(C1CCc3ccccc31)C2 (stereo partly drawn) [1-249]	0%/ 0%	0%/ 0%
C=CC(=O)N1CC2CC(=O)CC1CN2c1nc(OC)nc2c1CN(C1CCc3ccccc31)C2 (stereo not drawn) [1-250]	0%/ 0%	0%/ 0%
C=CC(=O)N1CC2CC(=O)CC(C1)N2c1nc(OC[C@@H]2CCCN2C)nc2c1CN(C1CCc3ccccc31)C2 (stereo partly drawn) [1-251]	0%/ 0%	0%/ 0%
C=CC(=O)N1CC2CC(=O)CC(C1)N2c1nc(O[C@@H]2CN(C)C[C@H]2OC)nc2c1CN(C1CCc3ccccc31)C2 (stereo partly drawn) [1-252]	0%/ 0%	0%/ 0%
C=C(F)C(=O)N1CCN(c2nc(OC[C@@H]3CCCN3C)nc3c2CN(Cc2c(CC)ccc(O)c2C)C3)C[C@@H]1CC#N [1-253]	93%	94%
C=CC(=O)N1CCN(c2nc(OC[C@@H]3CCCN3C)nc3c2CN(Cc2c(CC)ccc(O)c2C)C3)C[C@@H]1CC#N [1-255]	92%	94%
C=C(F)C(=O)N1CCN(c2nc(OC[C@@H]3CCCN3C)nc3c2CN(Cc2c(CC)ccc(O)c2OC)C3)C[C@@H]1CC#N [1-313]	87%	95%
C=CC(=O)N1CCN(c2nc(OC[C@@H]3CCCN3C)nc3c2CN(Cc2cc(O)ccc2Cl)C3)C2COCC21 (stereo partly drawn) [1-315]	41%	66%

Next, values leading:

CAF (10 minutes/60 minutes) at 10 micromolar: 10 minutes	CAF (10 minutes/60 minutes) at 10 micromolar: 60 minutes	SMILES
94%	95%	C=CC(=O)N1CCN(c2nc(OC[C@@H]3CCCN3C)nc3c2CN(Cc2ccccc2C(F)(F)F)C3)C[C@@H]1CC#N [1-213]
95%	94%	C=C(F)C(=O)N1CCN(c2nc(OC[C@@H]3CCCN3C)nc3c2CN(Cc2cc(O)ccc2C(C)C)C3)C[C@@H]1CC#N [1-218]
62%	92%	C=C(F)C(=O)N1CCN(c2nc(OC[C@@H]3CCCN3C)nc3c2CN(Cc2ccccc2C(F)(F)F)C3)C[C@@H]1CC#N [1-221]
3%	24%	C=C(F)C(=O)N1CCN(c2nc(OC[C@@H]3CCCN3C)nc3c2CN(Cc2cc(Cl)ccc2C(F)(F)F)C3)C[C@@H]1CC#N [1-222]
77%	93%	C=CC(=O)N1CCN(c2nc(OC[C@@H]3CCCN3C)nc3c2CN(Cc2ccccc2CC(F)(F)F)C3)C[C@@H]1CC#N [1-225]
94%	95%	C=CC(=O)N1CCN(c2nc(OC[C@@H]3CCCN3C)nc3c2CN(Cc2c(Cl)ccc4nc[nH]c24)C3)C[C@@H]1CC#N [1-229]
0%/ 0%	0%/ 0%	C#Cc1ccccc1CN1Cc2nc(OC[C@@H]3CCCN3C)nc(N3CCN(C(=O)C=C)[C@@H](CC#N)C3)c2C1 [1-235]
94%	95%	C=CC(=O)N1CCN(c2nc(OC[C@@H]3CCCN3C)nc3c2CN(Cc2c(Cl)ccc4ccccc24)C3)C[C@@H]1CC#N [1-236]
31%	73%	C=C(F)C(=O)N1CCN(c2nc(OC[C@@H]3CCCN3C)nc3c2CN(Cc2c(Cl)ccc4ccccc24)C3)C[C@@H]1CC#N [1-254]
93%	95%	C=C(F)C(=O)N1CCN(c2nc(OC[C@@H]3CCCN3C)nc3c2CN(Cc2c(Cl)ccc(O)c2C)C3)C[C@@H]1CC#N [1-311]
95%/ 95%	95%/ 95%	C=CC(=O)N1CCN(c2nc(OC[C@@H]3CCCN3C)nc3c2CN(Cc2c(Cl)ccc(O)c2C)C3)C[C@@H]1CC#N [1-312]
0%/ 0%	0%/ 0%	CN1CCC[C@H]1COc1nc2c(c(N3CCN(C(=O)C45CC4C5)[C@@H](CC#N)C3)n1)CN(C1CCc3ccccc31)C2 (stereo partly drawn) [1-316]
0%/ 0%	0%/ 0%	CN1CCC[C@H]1COc1nc2c(c(N3CCN(C(=O)C45CC4C5)[C@@H](CC#N)C3)n1)CN(Cc1ccccc1Cl)C2 (stereo partly drawn) [1-317]
1%	11%	C=CC(=O)N1CCN(c2nc(OC[C@@H]3CCCN3C)nc3c2CN(Cc2cccc4ncccc24)C3)C[C@@H]1CC#N [1-318]
0%/ 0%	0%/ 0%	C=C(F)C(=O)N1CCN(c2nc(OC[C@@H]3CCCN3C)nc3c2CN(Cc2cccc4ncccc24)C3)C[C@@H]1CC#N [1-319]
76%	91%	C=C(F)C(=O)N1CCN(c2nc(OC[C@@H]3CCCN3C)nc3c2CN(Cc2c(Cl)ccc4nc[nH]c24)C3)C[C@@H]1CC#N [1-320]
88%	90%	C=CC(=O)N1CCN(c2nc(OC[C@@H]3CCCN3C)nc3c2CN(Cc2c(Cl)ccc(O)c2Cl)C3)C[C@@H]1CC#N [1-321]
76%	94%	C=C(F)C(=O)N1CCN(c2nc(OC[C@@H]3CCCN3C)nc3c2CN(Cc2c(Cl)ccc(O)c2Cl)C3)C[C@@H]1CC#N [1-322]
